Data published in PubChem BioAssay AID328 (DTP/NCI, 2004).
Values joined by “and” are separate entries in the source; they are usually repeats but may differ in a detail not shown here. Equal values may be shown once. Inconclusive results and toxic doses are left out.

Test system: BDF1 mice, P388 leukemia ip, median survival T/C
Experiment: NCI In Vivo Anticancer Drug Screen. Data for tumor model P388 Leukemia (intraperitoneal) in B6D2F1 (BDF1) mice
Details: endpoint: median survival time, higher = longer survival
In short: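 Steps: implant the tumour, treat one group with compound and another with vehicle, record survival, then divide treated by control.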

[1] = dose: 100.0 mg/kg/injection, schedule: Q01DX009 (ip), vehicle: Klucel (hydroxypropylcellulose) (HPC)
[2] = dose: 100.0 mg/kg/injection, schedule: Q04DX003 (ip), vehicle: Klucel (hydroxypropylcellulose) (HPC)
[3] = dose: 200.0 mg/kg/injection, schedule: Q01DX009 (ip), vehicle: Klucel (hydroxypropylcellulose) (HPC)
[4] = dose: 200.0 mg/kg/injection, schedule: Q04DX003 (ip), vehicle: Klucel (hydroxypropylcellulose) (HPC)
[5] = dose: 400.0 mg/kg/injection, schedule: Q01DX009 (ip), vehicle: Klucel (hydroxypropylcellulose) (HPC)
[6] = dose: 400.0 mg/kg/injection, schedule: Q04DX003 (ip), vehicle: Klucel (hydroxypropylcellulose) (HPC)
[7] = dose: 50.0 mg/kg/injection, schedule: Q01DX009 (ip), vehicle: saline with Tween-80
[8] = dose: 100.0 mg/kg/injection, schedule: Q01DX009 (ip), vehicle: saline with Tween-80
[9] = dose: 200.0 mg/kg/injection, schedule: Q01DX009 (ip), vehicle: saline with Tween-80
[10] = dose: 1.56 mg/kg/injection, schedule: Q01DX009 (ip), vehicle: water
[11] = dose: 3.12 mg/kg/injection, schedule: Q01DX009 (ip), vehicle: water
[12] = dose: 100.0 mg/kg/injection, schedule: Q04DX003 (ip), vehicle: saline
[13] = dose: 200.0 mg/kg/injection, schedule: Q04DX003 (ip), vehicle: saline
[14] = dose: 50.0 mg/kg/injection, schedule: Q01DX009 (ip), vehicle: saline
[15] = dose: 75.0 mg/kg/injection, schedule: Q01DX009 (ip), vehicle: saline

Nc1ccccc1SC1CC(=O)N(c2ccccc2)C1=O (stereo not given)
T/C (dose: 100.0 mg/kg/injection, schedule: Q01DX001 (ip), vehicle: Klucel (hydroxypropylcellulose) (HPC)): 100 % of control | T/C [1]: 116 % of control | T/C [2]: 100 % of control | T/C (dose: 200.0 mg/kg/injection, schedule: Q01DX001 (ip), vehicle: Klucel (hydroxypropylcellulose) (HPC)): 95 % of control | T/C [3]: 122 % of control | T/C [4]: 95 % of control | T/C (dose: 400.0 mg/kg/injection, schedule: Q01DX001 (ip), vehicle: Klucel (hydroxypropylcellulose) (HPC)): 95 % of control | T/C [5]: 105 % of control | T/C [6]: 95 % of control

O=Cc1ccc(N(c2ccccc2)c2ccccc2)cc1
T/C [2]: 111 % of control | T/C [4]: 111 % of control | T/C [6]: 94 % of control

CN1CCc2ccccc2C1Cc1ccccc1NC(=O)c1sc2ccccc2c1Cl (stereo not given)
T/C (dose: 50.0 mg/kg/injection, schedule: Q01DX009 (ip), vehicle: Klucel (hydroxypropylcellulose) (HPC)): 86 % of control | T/C [1]: 91 % of control | T/C [3]: 89 % of control

CCCCCCNC(=S)/N=C(\N)n1nc(C)cc1C
T/C [7]: 109 % of control | T/C [8]: 99 % of control | T/C [9]: 112 % of control

C[n+]1c(-c2ccc(Cl)cc2Cl)c2cc(N)ccc2c2ccccc21
T/C (dose: 0.09 mg/kg/injection, schedule: Q01DX009 (ip), vehicle: water): 98 % of control | T/C (dose: 0.19 mg/kg/injection, schedule: Q01DX009 (ip), vehicle: water): 90 % of control | T/C (dose: 0.39 mg/kg/injection, schedule: Q01DX009 (ip), vehicle: water): 98 % of control | T/C (dose: 0.78 mg/kg/injection, schedule: Q01DX009 (ip), vehicle: water): 98 % of control | T/C [10]: 102 % of control and 120 % of control | T/C [11]: 98 % of control and 112 % of control

C=C1C(=O)O[C@H]2[C@H]1[C@H](OC(=O)/C(C)=C\C)C[C@]1(CO1)[C@@H]1[C@H](OC(C)=O)C=C(C)[C@]21O
T/C (dose: 10.0 mg/kg/injection, schedule: Q01DX010 (ip), vehicle: steriod suspending solution): 100 % of control | T/C (dose: 20.0 mg/kg/injection, schedule: Q01DX010 (ip), vehicle: steriod suspending solution): 109 % of control | T/C (dose: 40.0 mg/kg/injection, schedule: Q01DX010 (ip), vehicle: steriod suspending solution): 118 % of control

C=CCSc1nc(N)nc2nc[nH]c12
T/C (dose: 100.0 mg/kg/injection, schedule: Q01DX009 (ip), vehicle: saline sonified): 110 % of control | T/C (dose: 100.0 mg/kg/injection, schedule: Q04DX003 (ip), vehicle: saline with Tween-80): 104 % of control | T/C (dose: 200.0 mg/kg/injection, schedule: Q04DX003 (ip), vehicle: saline with Tween-80): 100 % of control | T/C (dose: 400.0 mg/kg/injection, schedule: Q04DX003 (ip), vehicle: saline with Tween-80): 109 % of control

Nc1ncnc2c1ncn2C1CCCO1 (stereo not given)
T/C [7]: 100 % of control | T/C [8]: 109 % of control | T/C [12]: 100 % of control | T/C [9]: 109 % of control | T/C [13]: 95 % of control

Cc1[nH]c(=O)[nH]c(=O)c1/C=C/C(=O)NC(CO)CC(C)C (stereo not given)
T/C (dose: 12.5 mg/kg/injection, schedule: Q01DX009 (ip), vehicle: saline): 108 % of control | T/C (dose: 25.0 mg/kg/injection, schedule: Q01DX009 (ip), vehicle: saline): 90 % of control | T/C (dose: 25.0 mg/kg/injection, schedule: Q04DX003 (ip), vehicle: saline): 107 % of control | T/C [14]: 102 % of control | T/C (dose: 50.0 mg/kg/injection, schedule: Q04DX003 (ip), vehicle: saline): 100 % of control | T/C (dose: 100.0 mg/kg/injection, schedule: Q01DX009 (ip), vehicle: saline): 91 % of control | T/C [12]: 91 % of control | T/C (dose: 200.0 mg/kg/injection, schedule: Q01DX009 (ip), vehicle: saline): 108 % of control | T/C [13]: 109 % of control | T/C (dose: 400.0 mg/kg/injection, schedule: Q01DX009 (ip), vehicle: saline): 100 % of control | T/C (dose: 400.0 mg/kg/injection, schedule: Q04DX003 (ip), vehicle: saline): 116 % of control

O=[N+]([O-])c1ccc(N2CCCC(n3cccc3)C2)c([N+](=O)[O-])c1 (stereo not given)
T/C [7]: 109 % of control | T/C [8]: 115 % of control

CCN(CC)CCNc1ccc(C)c2sc3ccccc3c(=O)c12 (tested in a mixture with another compound)
T/C (dose: 5.5 mg/kg/injection, schedule: Q01DX009 (ip), vehicle: saline): 100 % of control and 121 % of control | T/C (dose: 8.2 mg/kg/injection, schedule: Q01DX009 (ip), vehicle: saline): 90 % of control and 110 % of control | T/C (dose: 22.0 mg/kg/injection, schedule: Q01DX009 (ip), vehicle: saline): 122 % of control | T/C (dose: 33.0 mg/kg/injection, schedule: Q01DX009 (ip), vehicle: saline): 110 % of control | T/C (dose: 35.0 mg/kg/injection, schedule: Q01DX009 (ip), vehicle: saline): 116 % of control | T/C [14]: 154 % of control | T/C [15]: 154 % of control and 180 % of control | T/C (dose: 88.0 mg/kg/injection, schedule: Q04DX003 (ip), vehicle: saline): 122 % of control | T/C (dose: 100.0 mg/kg/injection, schedule: Q04DX003 (ip), vehicle: alcohol): 94 % of control | T/C [12]: 116 % of control | T/C (dose: 200.0 mg/kg/injection, schedule: Q04DX003 (ip), vehicle: alcohol): 111 % of control | T/C [13]: 166 % of control | T/C (dose: 300.0 mg/kg/injection, schedule: Q04DX003 (ip), vehicle: saline): 95 % of control | T/C (dose: 400.0 mg/kg/injection, schedule: Q04DX003 (ip), vehicle: alcohol): 111 % of control

O=C1C(c2ccccc2)=C(c2ccccc2)C(c2ccccc2)=C1c1ccccc1
T/C (dose: 0.78 mg/kg/injection, schedule: Q04DX003 (ip), vehicle: water): 88 % of control | T/C [10]: 103 % of control | T/C (dose: 1.56 mg/kg/injection, schedule: Q04DX003 (ip), vehicle: water): 95 % of control | T/C [11]: 94 % of control | T/C (dose: 3.12 mg/kg/injection, schedule: Q04DX003 (ip), vehicle: water): 88 % of control | T/C (dose: 6.25 mg/kg/injection, schedule: Q01DX009 (ip), vehicle: water): 97 % of control | T/C (dose: 6.25 mg/kg/injection, schedule: Q04DX003 (ip), vehicle: water): 106 % of control | T/C (dose: 12.5 mg/kg/injection, schedule: Q01DX009 (ip), vehicle: water): 94 % of control | T/C (dose: 12.5 mg/kg/injection, schedule: Q04DX003 (ip), vehicle: water): 100 % of control | T/C (dose: 25.0 mg/kg/injection, schedule: Q01DX009 (ip), vehicle: water): 97 % of control | T/C (dose: 50.0 mg/kg/injection, schedule: Q01DX009 (ip), vehicle: water): 97 % of control | T/C (dose: 100.0 mg/kg/injection, schedule: Q01DX009 (ip), vehicle: water): 101 % of control | T/C (dose: 200.0 mg/kg/injection, schedule: Q01DX009 (ip), vehicle: water): 91 % of control | T/C (dose: 400.0 mg/kg/injection, schedule: Q01DX009 (ip), vehicle: water): 87 % of control

CC1(C)C2CC3C(C(=O)O)CCCC3(C2)C1Br (stereo not given)
T/C [2]: 90 % of control | T/C [4]: 100 % of control | T/C [6]: 95 % of control

CC(C)(C)/C=N/Nc1ccc([N+](=O)[O-])cc1[N+](=O)[O-]
T/C (dose: 50.0 mg/kg/injection, schedule: Q04DX003 (ip), vehicle: Klucel (hydroxypropylcellulose) (HPC)): 104 % of control | T/C [1]: 100 % of control | T/C [2]: 104 % of control | T/C [3]: 100 % of control | T/C [4]: 109 % of control | T/C [5]: 95 % of control

CCNC(=NC)c1ccc(NC(=O)c2ccc(C(=O)Nc3ccc(C(=NC)NCC)cc3)cc2)cc1
T/C (dose: 3.9 mg/kg/injection, schedule: Q01DX009 (ip), vehicle: saline with Tween-80): 118 % of control | T/C (dose: 4.0 mg/kg/injection, schedule: Q01DX009 (ip), vehicle: saline with Tween-80): 179 % of control | T/C (dose: 9.0 mg/kg/injection, schedule: Q01DX009 (ip), vehicle: saline with Tween-80): 109 % of control

CC1(C2CC2)NC(=O)NC1=O (stereo not given)
T/C [15]: 113 % of control | T/C (dose: 100.0 mg/kg/injection, schedule: Q01DX001 (ip), vehicle: saline): 113 % of control | T/C (dose: 150.0 mg/kg/injection, schedule: Q01DX009 (ip), vehicle: saline): 104 % of control | T/C (dose: 200.0 mg/kg/injection, schedule: Q01DX001 (ip), vehicle: saline): 104 % of control | T/C (dose: 300.0 mg/kg/injection, schedule: Q01DX009 (ip), vehicle: saline): 100 % of control | T/C (dose: 400.0 mg/kg/injection, schedule: Q01DX001 (ip), vehicle: saline): 104 % of control
